Patent publication US20260248744A1, “USE OF NON-TOXIC POLYAMINE ANALOGUES AND/OR INHIBITORS OF POLYAMINE BIOSYNTHESIS TO RE-BALANCE NATURAL POLYAMINE LEVELS IN SNYDER-ROBINSON SYNDROME AND RELATED DISORDERS” (The Johns Hopkins University, priority 2022, published 2026)
Blank lines part the entries; values can stand above or below the compound they belong to.

How the values were obtained:
[1] = shown previously (Murray Stewart et al., 2020); cited from earlier work
SRS fibroblast lines = experiment: Proliferation of SRS fibroblast lines cotreated with DFMO and Me2Spm; format: cell-based; details: cotreated with DFMO and Me2Spm for 96 h (FIG. 4C)
Protocol: (FIG. 4B) DFMO cooperates with Me2Spm in improving SPD/SPM ratio, indicated by numbers above columns. […] In FIG. 4A and FIG. 4B, SRS patient-derived lymphoblastoid cells were pretreated with DFMO followed by 96-h cotreatment with DFMO and Me2Spm. SRS fibroblast lines in FIG. 4C were cotreated with DFMO and Me2Spm for 96 h;

WT male C57Bl/6J mice = experiment: Long-term in vivo exposure to low-dose (R,R)-1,12-Me2Spm in mice; details: WT male C57Bl/6J mice (FIG. 2)
Source text: Without wishing to be bound to any one particular theory, it is thought that inhibiting polyamine biosynthesis will enhance uptake of 1,12-Me2Spm and/or reduce the dose necessary for spermidine reduction.

SRS cells = experiment: Treatment of SRS cells with AdoDATO (polyamine levels); format: cell-based; details: SRS cells (FIG. 6)
[2] = target: T1, spermidine synthase (SRM) (Homo sapiens, UniProt P19623); experiment: Inhibition of spermidine synthase
T1 sequence (P19623 1-302): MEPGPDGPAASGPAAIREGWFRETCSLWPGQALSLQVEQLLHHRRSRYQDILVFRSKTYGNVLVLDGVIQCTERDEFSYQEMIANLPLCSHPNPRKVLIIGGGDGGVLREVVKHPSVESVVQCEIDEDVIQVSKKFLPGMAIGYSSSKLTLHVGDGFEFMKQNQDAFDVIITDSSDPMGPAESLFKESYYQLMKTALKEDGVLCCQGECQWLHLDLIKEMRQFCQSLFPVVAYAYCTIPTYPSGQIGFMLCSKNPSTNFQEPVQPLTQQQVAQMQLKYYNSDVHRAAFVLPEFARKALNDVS

[3] = test system: SRS patient-derived cell lines; experiment: Response of SRS patient-derived cell lines to DFMO (conversion of SPD to SPM); format: cell-based
children = details: Phase 2 preventative trials in pediatric neuroblastoma; ODC1/Bachmann-Bupp trials; cited from earlier work
[4] = test system: SRS patient-derived lymphoblastoid cells; experiment: Polyamine levels in SRS patient-derived lymphoblastoid cells treated with DFMO and Me2Spm; format: cell-based; details: DFMO pretreatment followed by 96-h cotreatment (FIG. 4A)
[5] = test system: SRS cells with a complete loss-of-function mutation in SMS; experiment: Response to DFMO of SRS cells with complete loss-of-function mutation in SMS; format: cell-based; details: response to DFMO (FIG. 5E)
Source text: (§1) FIG. 5A, FIG. 5B, FIG. 5C, FIG. 5D, and FIG. 5E show potential therapeutic targets and molecules in the response of SRS cells to DFMO.

SAMDC = SAMDC activity in SRS cells treated with DFMO; format: cell-based; details: FIG. 5C
Source text: as §1

Compound: C[C@@H](N)CCNCCCCNCC[C@@H](C)N [(R,R)-1,12-dimethylspermine]
- metabolic stability [1]: metabolically stable
- rescue of DFMO-mediated growth inhibition (SRS fibroblast lines): rescues DFMO-mediated growth inhibition
- SPD/SPM ratio (WT male C57Bl/6J mice): improves the SPD/SPM ratio
- toxicity of long-term in vivo exposure (WT male C57Bl/6J mice): nontoxic

- inhibition of spermidine synthase (SRM) [2]: inhibits spermidine synthase (SRM)
Compound: NCCCCC[S+](CCN)CC1OC(n2cnc3c(N)ncnc32)C(O)C1O (stereo not drawn) [AdoDATO, S-adenosyl-1,8-diamino-3-thio-octane]
- SPD/SPM ratio (SRS cells): improves the SPD/SPM ratio
- levels of putrescine (SRS cells): maintaining levels of putrescine

Compound: N=C(N)c1cccc2c1CC/C2=N\N=C(N)N [CGP48664]
- conversion to SPM on cotreatment with DFMO ([3]; cotreatment of DFMO with SAMDC inhibitor (FIG. 5D)): prevents the conversion to SPM

Compound: difluoromethylornithine [DFMO]
- safety in children (children): safe in children
- uptake of Me2Spm [4]: increases uptake of Me2Spm
- conversion of SPD to SPM [5]: do not convert SPD to SPM
- SAMDC activity (SAMDC): induces SAMDC activity
- levels of putrescine (SRS cells): depletes
- SPD/SPM ratio ([3]; SRS patient-derived cell lines (FIG. 5B)): correction of the SPD/SPM ratio
- conversion of SPD to SPM ([3]; hypomorphic SRS cells (FIG. 5A)): enhances conversion of SPD to SPM
